We go through one substance from US12060588B2, “Methods of editing DNA methylation” (Whitehead Institute for Biomedical Research, priority 2016, dated 2024).

Assay [1] concerns off-target binding sites at Vac14, Tenm4, Vrk1 and Gm42619 loci. Nature of the assay: Bisulfite sequencing of off-target binding sites. The assay is classed as cell-based, mouse.
In another assay the test system is Npas4. As to the kind of experiment: Npas4 expression in mouse cortical neurons (RT-qPCR). It counts as cell-based. Particulars: with the 4 BDNF promoter IV gRNAs. The procedure:
FIGS. 11A-11L depict targeted demethylation of BDNF promoter IV by dCas9-Tet1 in neurons. […] PAM for each gRNA is highlighted by a red box. […] Note that cultured neurons were treated with AraC on DIV2 to halt cell division in glial cells and neural progenitors. […] FIG. 11C provides EDU labeling analysis for the mouse primary neurons over the course of KCl treatment for 24 hrs. Note that extremely few EDU positive cells were observed. Stained in red for EDU, green for MAP2 and DAPI for nuclei. Scale bar: 500 um. FIG. 11D Upper panel: provides quantification of neuronal density over the course of KCl treatment. The post-mitotic neuron density remains steadily around 4.5×10^4/cm2 over time. Bars represent mean±SD of three experimental replicates. Lower panel: provides quantification of the EDU positive cells over the course of KCl treatment. Less than 2% of the cells are EDU-positive over 24 hrs. Bars represent mean±SD of three experimental replicates. FIG. 11E provides confocal micrographs of BDNF induction by ectopic expression of dCas9-Tet1 and a set of 4 gRNAs targeting BDNF promoter IV. Stained in green for BDNF, magenta for MAP2, red for Cherry and blue for DAPI. […]
Cells were harvested using Trizol followed by Direct-zol (Zymo Research), according to manufacturer's instructions. […] Quantitative PCR reactions were prepared with SYBR Green (Invitrogen), and performed in 7900HT Fast ABI instrument. […]
(In general: Real-time PCR tracks product formation cycle by cycle.)

A further assay deals with BDNF promoter IV. Nature of the assay: Bisulfite sequencing of BDNF promoter IV in mouse cortical neurons. The assay is classed as cell-based. The following applies: with 4 BDNF gRNAs, in contrast to gRNA negative controls. On the procedure: FIGS. 3A-3E depict targeted demethylation of BDNF promoter IV by dCas9-Tet1 to activate BDNF in neurons. FIG. 3A provides a schematic representation of targeting BDNF promoter IV by dCas9-Tet1 (dC-T) with specific gRNAs to erase methylation and activate BDNF expression. […] Bars are mean t SD of three biological replicates. FIG. 3C provides representative confocal images for BDNF induction in FIG. 3B. Top panel: BDNF expression was induced by 50 mM KCl treatment for 6 hrs. […] Stained in red for MAP2 (top two panels) or Cherry (bottom two panels), green for BDNF, blue for DAPI and grey for dCas9. Scale bar: 50 um. FIG. 3D depicts bisulfite sequencing of neurons in FIG. 3C. […] Shown is the mean percentage±SD of two biological replicates.
DNA replication-independent active demethylation has been proposed to operate in post-mitotic neurons (Guo et al., 2011; Martinowich et al., 2003). To test whether active demethylation can be induced in post-mitotic neurons, we applied the dCas9-Tet1 system to study the regulation of the BDNF gene. BDNF expression can be induced by neuronal activity accompanied by demethylation of its promoter IV (Chen et al., 2003; Martinowich et al., 2003). We designed 4 gRNAs targeting 11 CpGs in BDNF promoter IV (FIG. 11A) to determine whether dCas9-Tet1 can activate BDNF by inducing demethylation of this promoter (FIG. 3A). […]

For the substance “dCas9-Tet1: catalytically inactive Cas9 (dCas9) fused through NLS to the Tet1 catalytic domain, SEQ ID NO: 159; lentivirally expressed with gRNAs”, the “change in methylation level at second and third strongest (off-target) binding sites” value in assay [1] is “only marginal change in methylation level”. The “induction of Npas4 expression” value in the assay with Npas4 is reported as “did not induce Npas4 expression”. Also, the “methylation of BDNF promoter IV” value with BDNF promoter IV is “significantly reduced methylation”.
